Where “and” joins values, the source holds several entries; their conditions need not be identical. Equal values may be shown once.
Tests used:
MSSA in the nares [1] = experiment: Nasal colonization human study Part One, quantitative swab cultures, MSSA; format: in vivo, S. aureus; settings: for s. aureus Average: laser w/ drug arm, one line per patient
Method: (§1) This investigational protocol was an open-label study of subjects who are colonized with MRSA in the nares (nostril). The study was done in two parts.
(§2) In this human study, three arms were produced. […] This was done on day 1 and again on day three; and Arm #3: ⅓ of the subjects were treated with the laser and then a topical antibiotic three times a day for five days. Prior to enrollment in this study, prospective subjects met all of the following criteria: age≧18 years and ≦70 years of age; previous positive MRSA culture; negative urine pregnancy test or post-menopausal for one year; willing to comply with study requirements, including return visits and self-application of topical antibiotics; and willing to provide informed consent to participate. Prospective subjects were excluded from this study if any of the following criteria were met: pregnancy; patients who are severely immunocompromised (such as may occur in AIDS, renal transplant regimens, immunosuppressed states consequent to malignancy or agents used in rendering oncologic care, or who suffer from end stage renal disease); diabetic patients; allergy to antimicrobials being used in the study (group 3).
(§3) All participants underwent an initial quantitative assessment for nasal carriage of S. aureus, during their first visit. Each participant had the anterior nares (each nostril) sampled for culture with a circular movement (three rotations on each side) of a sterile wood applicator plain Rayon® tipped swab in each nostril and placed in a labled tube. 2 ml of room temp phosphate buffered saline was placed in the tube after the removal of the swab (to completely cover the swab in the tube). Each swab was then placed back in the tube and the tube was then vortexed for 15 seconds to disperse isolates of MRSA and/or MSSA into the PBS solution. Aliquots of PBS from the tube were plated in the following manner: 100 μl from each tube was lawn plated in triplicate (3×) on selective Chromogenic MRSA And MSSA agar. Plates were placed in incubator within 30 minutes of the plating procedure, and colonies were counted manually, and recorded 18 hrs after plating.
(§4) On day one of the study, all subjects underwent this exact procedure in arms 1 and 2 of the study two minutes before the laser procedure. They again were sampled in the same manner 2 minutes after the laser procedure. In the third arm of the study, they were swabbed two minutes before the procedure and the first antibiotic administration was completed after the laser therapy. The post/laser swab sample was taken for this arm 20 min later.
(§5) On day three of the study, all subjects from arms one two and three underwent the exact same procedures as day 1 of the study.
(§6) On day five all subjects from all arms underwent just one swabbing per nostril with the exact same sampling procedure one time.
(§7) Application of H202: 3% OTC hydrogen peroxide was applied to a cotton pledget for application to the subject prior to irradiation. This was inserted in the nose for 120 seconds and then removed. The subjects were then given doses of phototherapeutic near infrared radiation as described. Application of generic topical Antimicrobial: The subjects were first given doses of phototherapeutic near infrared radiation as described. […] The swab was inserted approximately 1 cm in to the anterior nares and rotated 360 degrees several times and removed. Patients were instructed to perform the exact application procedure 3 times a day for the remaining 5 days.
(§8) The NOVEON™ laser was used for two (2) six-minute treatments in each nostril on day (1) and day (3) of the study.
(§9) The laser was calibrated before the first treatment of the day. Intermittent temperature testing of the treatment site was performed on each subject using a noncontact infrared thermometer (Raytek Minitemp), 30-60 second intervals.

MRSA in the nares = experiment: Nasal colonization human study Part One, quantitative swab cultures, MRSA; format: in vivo, S. aureus; settings: for MRSA Average: laser w/ drug arm, one line per patient; for reduction of bioburden: laser plus 2% erythromycin paste
Method: as §1, §2, §3, §4, §5, §6, §7, §8, §9

MRSA = experiment: CFU counts of MRSA plated on agar with antibiotic after sub-lethal NIMELS laser (Examples IX-XII); format: cell-based, Staphylococcus aureus; settings: for effect of sub-lethal NIMELS irradiation on antibiotic action against MRSA colonies (words): antibiotic at resistant MIC just below effectiveness level
Excerpt: The following parameters illustrate the general bacterial methods according to the invention as applied to MRSA for the in vitro Experiments V and VIII-XII.
The null hypothesis is μ1−μ2=0 and μ1−μ3=0 where:
a) μ1 is sub-lethal dosimetry from the NIMEL laser system on MRSA as a control and;
The null hypothesis is μ1−μ2=0 and μ1−μ3=0 where: • a) μ1 is sub-lethal dosimetry from the NIMEL laser system on MRSA as a control and; • b)μ2 is the same sub-lethal dosimetry from the NIMEL laser system on MRSA with the addition of tetracycline at resistant MIC just below effectiveness level and; • c) μ3 is the same sub-lethal dosimetry from the NIMEL laser system on MRSA with the addition of rifampin at resistant MIC just below effectiveness level.
The null hypothesis is μ1−μ2=0 and μ1−μ3=0 where: a) μ1 is sub-lethal dosimetry from the NIMEL laser system on MRSA as a control and; b)μ2 is the same sub-lethal dosimetry from the NIMEL laser system on MRSA with the addition of methicillin at resistant MIC just below effectiveness level and; […]

MSSA in the nares [2] = experiment: Nasal colonization human study Part Two, laser plus topical erythromycin, MSSA; format: in vivo, S. aureus; settings: one patient, baseline count >1000 CFU's; day 5 culture
Method: A second human study was conducted, to further evaluate the therapeutic potential of the NOVEON™ laser system, including its ability to reverse drug resistance in bacteria. The study was conducted in a similar manner as Part One, above. Outcome measures assessed included both laboratory study and clinical observations.
Positive anterior nares cultures were obtained in six patients (12 nostrils) having nasal colonization of MRSA or MSSA, before initiating bacterial photodamage through doses of phototherapeutic near infrared radiation. One patient had MRSA only, 3 had MSSA only, and 2 had both MRSA and MSSA.
The swab was inserted approximately 1 cm in to the anterior nares of the subject, rotated 360 degrees several times and removed.
The laser was calibrated before the first treatment of the day and between each patient. The NOVEON™ laser was used for four six-minute treatments of the nares at the following sets of dosimetries (Tables 59), which were evaluated for safety in previous studies. […] Temperatures of the nares were recorded every 30 seconds with an IR temperature thermometer.
Quantitative cultures from each nostril were obtained and plated in triplicate on chromogenic agar before and 20 minutes after exposure on day 1 and day 3. […]

[3] = Initial Analysis, Post-treatment swab, left nostril
[4] = Initial Analysis, Post-treatment swab, right nostril
[5] = Initial Analysis, Pre swab (baseline), left nostril, mean of triplicate plates
[6] = Initial Analysis, Pre swab (baseline), right nostril
[7] = Second Analysis, Post-treatment swab, left nostril
[8] = Second Analysis, Post-treatment swab, right nostril
[9] = Second Analysis, Pre swab, left nostril
[10] = Second Analysis, Pre swab, right nostril
[11] = Third Analysis, Swab, left nostril
[12] = Third Analysis, Swab, right nostril
[13] = patient 01-005, 2% erythromycin paste three times a day for five days

## CC[C@H]1OC(=O)[C@H](C)[C@@H](O[C@H]2C[C@@](C)(OC)[C@@H](O)[C@H](C)O2)[C@H](C)[C@@H](O[C@@H]2O[C@H](C)C[C@H](N(C)C)[C@H]2O)[C@](C)(O)C[C@@H](C)C(=O)[C@H](C)[C@@H](O)[C@]1(C)O [Erythromycin]
MSSA in the nares [1]; [3]
  s. aureus Average: 0 CFU (2×) and 188 CFU
MSSA in the nares [1]; [4]
  s. aureus Average: 0 CFU
MSSA in the nares [1]; [5]
  s. aureus Average: 0 CFU (2×) and 3045 CFU
MSSA in the nares [1]; [6]
  s. aureus Average: 0 CFU (2×) and 16 CFU
MSSA in the nares [1]; [7]
  s. aureus Average: 0 CFU
MSSA in the nares [1]; [8]
  s. aureus Average: 0 CFU
MSSA in the nares [1]; [9]
  s. aureus Average: 0 CFU (2×) and 71 CFU
MSSA in the nares [1]; [10]
  s. aureus Average: 0 CFU
MSSA in the nares [1]; [11]
  s. aureus Average: 0 CFU
MSSA in the nares [1]; [12]
  s. aureus Average: 0 CFU
MSSA in the nares [1]; [13]
  outcome on MSSA colonization, laser plus topical erythromycin: eradication in both nostrils
MRSA in the nares; [3]
  MRSA Average: 0 CFU (2×) and 166 CFU
MRSA in the nares; [4]
  MRSA Average: 0 CFU (2×) and 1 CFU
MRSA in the nares; [5]
  MRSA Average: 0 CFU (2×) and 3072 CFU
MRSA in the nares; [6]
  MRSA Average: 0 CFU (2×) and 8 CFU
MRSA in the nares; [7]
  MRSA Average: 0 CFU
MRSA in the nares; [8]
  MRSA Average: 0 CFU
MRSA in the nares; [9]
  MRSA Average: 0 CFU (2×) and 76 CFU
MRSA in the nares; [10]
  MRSA Average: 0 CFU
MRSA in the nares; [11]
  MRSA Average: 0 CFU
MRSA in the nares; [12]
  MRSA Average: 0 CFU
MRSA in the nares; patient 01-005, heavily colonized nostril
  reduction of bioburden: ≥ 3 log
MRSA in the nares; patient 01-005, moderately colonized nostril
  reduction of bioburden: ≥ 2 log
MRSA in the nares; [13]
  outcome on MRSA colonization, laser plus topical erythromycin: eradication in both nostrils
MRSA
  effect of sub-lethal NIMELS irradiation on antibiotic action against MRSA colonies (words): successful reversal of MRSA resistance
MRSA; listed as erythromycin
  effect of sub-lethal NIMELS irradiation on antibiotic action against MRSA colonies (words): resistance to erythromycin being reversed
MRSA; no laser, agar with erythro 4 ug/ml, replicates B-4 1 to 5
  MRSA colony count, CONTROL (no laser): 196 and 168 and 175 and 177 and 195
MRSA; sub-lethal NIMELS laser, agar with erythro 4 ug/ml, replicates B-4 1 to 5
  MRSA colony count, EXPERIMENTAL: 27 and 39 (2×) and 35 and 28
MSSA in the nares [2]
  reduction in MSSA: 3 log

From patent US20110295343A1, “NEAR-INFRARED ELECTROMAGNETIC MODIFICATION OF CELLULAR STEADY-STATE MEMBRANE POTENTIALS” (priority 2008, published 2011)
